Laboratory results as given in patent publication US20130039951A1, “Process Of Preparing A Stabilized And Solubilized Formulation Of Sirolimus Derivatives” (DONG-A PHARM. CO., LTD., priority 2011, published 2013).

Experiments:
[1] = Elution test of tablets in distilled water, paddle method, HPLC; assay type: physicochemical; conditions: 900 mL distilled water, 37.5° C., 10 mg everolimus, after 1 hour
Description: The granules of the examples were mixed with pharmaceutical excipients as set forth in Table 1 and then tableted to give a tablet. A direct compressing method was used to prepare a tablet comprising 10 mg of a sirolimus derivative with a hardness of 13 to 15 Kp. However, the formulation prepared from Comparative Example 1 had difficulties in being mixed with the pharmaceutical excipients of Table 1 and also met with an obstacle in a tableting process so that it was subjected to an additional milling process and controlled to have a granularity of 200 to 300 μm before being mixed with the excipients and tableted.
The tablets as obtained were evaluated for their elution property. 900 mL of an elution liquid (distilled water) was put into an elution tester and the granules as obtained in Examples 1 to 6 were taken in an amount corresponding to a dosage of 10 mg of everolimus and subjected to an elution test at 37.5° C. with 50 cycles per a minute by using a paddle method for 2 hours. For each […] taken in accordance with a predetermined schedule, the concentration of everolimus in the elution liquid was quantified by using a high performance liquid chromatography. […]

[2] = Stability: storage in glass vial at 80° C. for 60 hours, drug content by HPLC; assay type: physicochemical
Description: For Examples 1 to 6 and Comparative Examples 2 and 3, their stability was evaluated and the results were compared. Each of the samples was placed in a glass vial and stored at 80° C. for 60 hours, and then the content of the drug was quantified by using a high performance liquid chromatography.

SMILES: CO[C@H]1C[C@@H]2CC[C@@H](C)[C@@](O)(O2)C(=O)C(=O)N2CCCC[C@H]2C(=O)O[C@H]([C@H](C)C[C@@H]2CC[C@@H](OCCO)[C@H](OC)C2)CC(=O)[C@H](C)/C=C(\C)[C@@H](O)[C@@H](OC)C(=O)[C@H](C)C[C@H](C)/C=C/C=C/C=C/1C [Comparative Example 2, 40-O hydroxyethyl rapamycin]
- elution rate of everolimus [1]: about 37%
- content after being left for 60 hours ([2]; 80° C., 60 hours): 23.5%
- Content, initial ([2]; before storage): 100.4 wt %
- Content, After 60 hours ([2]; stored at 80° C. for 60 hours in glass vial): 23.5 wt %
